Source: patent US7105527B2, “N4-acylcytosine nucleosides for treatment of viral infections” (priority 2001, dated 2006)

Tests used:
Format in all cases: cell-based
MT-2 cells = experiment: Cytotoxicity assay in MT-2 cells; conditions: Table 2, read-out: Cytotoxicity in different cells (IC50, μM) MT-2
Method in brief: (§1)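 Compound toxicity measured in each cell type, with cycloheximide as positive cytotoxic control and solvent-exposed untreated cells as negative control. Cytotoxicity IC50 derived from concentration-response curves by the median effective method.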

HIV-1LAl = experiment: Anti-HIV (in PBM cells) assay, reverse transcriptase readout; conditions: Table 2, read-out: Anti-HIV-1 activity in different cells (EC90, μM) PBM
Method in brief: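 Human PBM cells infected with HIV-1; compounds diluted from DMSO stocks into growth medium, AZT as positive control. Virus in supernatant quantified day 6 post-infection by reverse transcriptase assay with (rA)n.(dT)12.18 template-primer; EC50 and EC90 from concentration-response curves by median effective method.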

human PBM cells = experiment: Cytotoxicity assay in PBM cells; conditions: Table 2, read-out: Cytotoxicity in different cells (IC50, μM) PBM
Method in brief: as §1

HepG2 cells = experiment: Cytotoxicity assay in HepG2 cells; conditions: Table 2, read-out: Cytotoxicity in different cells (IC50, μM) HepG2
Method in brief: as §1

HIV-1RF = experiment: Anti-HIV (in MT-2 cells) assay, viral RNA accumulation; conditions: Table 2; EC90; MT-2 cells; read-out: Anti-HIV-1 activity in different cells (EC90, μM) MT-2
Method in brief: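 HIV-1RF in MT-2 cells: viral RNA quantified after 3 days of infection by biotinylated capture/alkaline phosphatase reporter oligonucleotides. HIV-1NL4-3 recombinant virus in MT-4 cells: drug added 24 h post-infection, p24 measured by ELISA 3 days later.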

Vero cells = experiment: Cytotoxicity assay in Vero cells; conditions: Table 2, read-out: Cytotoxicity in different cells (IC50, μM) Vero
Method in brief: as §1

HIV-1NL4-3 = experiment: Anti-HIV assay in MT-4 cells, consensus p24 assay; conditions: Table 2, read-out: Anti-HIV-1 activity in different cells (EC90, μM) MT-4
Experimental: In a second antiviral testing system, the potency of the compounds was determined by measurement of viral RNA accumulation in HIV-1RF infected MT-2 cells (Bacheler L T, Paul M, Otto M J, Jadhav P K, Stone B A & Miller J A (1994) An assay for HIV RNIn infected cell lysates, and its use for rapid evaluation of antiviral efficacy. Antivir. Chem. Chemother. 5:111–121). The virus titer was established to determine the dilution producing 15 to 30 ng/RNA per well of HIV RNIn 3 days of infection. HIV-1 RNA was quantified using biotinylated capture and alkaline phosphatase-derivatized reporter oligonucleotides as described previously (Charvet A-S, Camplo M, Faury P, Graciet J C, Mourier N, Chermann J C & Kraus J L (1994) Inhibition of human immunodeficiency virus type 1 replication by phosphonoformate- and phosphonoacetate-2′,3′-dideoxy-3′-thiacytidine conjugates. J. Med. Chem. 37:2216–2223). In a third system, the effect of analogs on the replication of HIV-1NL4-3 was determined via the InterCompany Consortium consensus p24 assay as previously described (Jadhav P K & MacKay M F (1997) Cyclic urea amide: HIV-1 protease inhibitors with low nanomolar potency against both wild types and protease inhibitor resistant mutants of HIV. J. Med. Chem. 40:181–190). Recombinant viruses were recovered by transfecting the appropriate NL4-3 plasmid by lipofection. Virus stocks recovered 7 to 10 days post-transfection were titered on MT-4 cells to determine if the dilution produced 1,000 to 3,000 ng p24 in 4 days. This dilution was then used in drug susceptibility assays, where drug was added 24 h post infection of cells, and p24 quantified by ELISA 3 days later.

[1] = test system: CEM (human lymphoblastoid) cells; experiment: Cytotoxicity assay in CEM cells; conditions: Table 2, read-out: Cytotoxicity in different cells (IC50, μM) CEM
Method in brief: as §1

SMILES	IC50 (MT-2 cells)	EC90 (HIV-1LAl)	IC50 (human PBM cells)	IC50 (HepG2 cells)	EC90 (HIV-1RF)	IC50 (Vero cells)	EC90 (HIV-1NL4-3)	IC50 [1]
O=C(Nc1nc(=O)n([C@H]2C=C[C@@H](CO)O2)cc1F)c1cccc(F)c1 [Compound 39, β-D-2′,3′-Didehydro-2′,3′-dideoxy-5-fluoro-N^4-(3-fluorobenzoyl)cytidine]	> 50 µM	7.82 µM	45.3 µM	> 100 µM	1 µM	> 100 µM	3.1 µM	4.2 µM
O=C(Nc1nc(=O)n([C@H]2C=C[C@@H](CO)O2)cc1F)c1cccc(Cl)c1 [Compound 40, β-D-N^4-(3-Chlorobenzoyl)-2′,3′-didehydro-2,3′-dideoxy-5-fluorocytidine]	> 50 µM	1.71 µM	45.3 µM	32.4 µM	2 µM	100 µM	3.4 µM	11.2 µM
O=C(Nc1nc(=O)n([C@H]2C=C[C@@H](CO)O2)cc1F)c1cccc(Br)c1 [Compound 41, β-D-N^4-(3-Bromobenzoyl)-2′,3′-didehydro-2′,3′-dideoxy-5-fluorocytidine]	> 50 µM	1.71 µM	51.6 µM	> 100 µM	1 µM	99.7 µM	2.2 µM	24.9 µM
CCc1ccc(C(=O)Nc2nc(=O)n([C@H]3C=C[C@@H](CO)O3)cc2F)cc1 [Compound 51, β-D-2′,3′-Didehydro-2′,3′-dideoxy-N^4-(4-ethyllbenzoyl)-5-fluorocytidine]	> 50 µM	6.2 µM	13 µM	> 100 µM	0.24 µM	40.3 µM	2.3 µM	8.1 µM
CC(C)(C)c1ccc(C(=O)Nc2nc(=O)n([C@H]3C=C[C@@H](CO)O3)cc2F)cc1 [Compound 53, β-D-N^4-(4-tert-Butylbenzoyl)-2′,3′-didehydro-2′,3′-dideoxy-5-fluorocytidine]	> 50 µM	0.41 µM	5 µM	> 100 µM	0.13 µM	59.2 µM	1.1 µM	9.9 µM
CCCC(=O)Nc1nc(=O)n([C@H]2C=C[C@@H](CO)O2)cc1F [Compound 60, β-D-N^4-Butyryl-2′,3′-didehydro-2′,3′-dideoxy-5-fluorocytidine]	> 50 µM	1.89 µM	52.4 µM	> 100 µM	2.4 µM	> 100 µM	3.1 µM	12.2 µM
Nc1nc(=O)n([C@H]2C=C[C@@H](CO)O2)cc1F [D-D4FC, β-D-2′,3′-Dideoxy-2′,3′-didehydro-5-fluorocytidine, reference compound]	> 50 µM	0.77 µM	> 100 µM	> 100 µM	1.19 µM	> 100 µM	1.15 µM	> 100 µM
